Results taken from PMC5888952 (Toxicological Sciences, 2018).

Tests used:
[1] = system: cryopreserved primary human hepatocytes (PHH) in 2Dsw culture; test: Repeated-dose cytotoxicity
[2] = system: cryopreserved primary human hepatocytes (PHH) in 3D spheroid culture; test: Repeated-dose cytotoxicity; assay type: cell-based
[3] = after long-term exposure, chosen treatment regimen

O=c1[nH]c(=O)n([C@@H]2O[C@H](CO)[C@@H](O)[C@@H]2F)cc1I [fialuridine]
EC50 (50% reduction in viability, ATP) ([1]; 2Dsw culture, any of the 3 PHH donors, up to 14 days repeated exposure): could not be attained
sensitivity of PHH in 2Dsw compared with 3D spheroids [1, 3]: substantially lower sensitivities

COc1ccccc1Oc1c(NS(=O)(=O)c2ccc(C(C)(C)C)cc2)nc(-c2ncccn2)nc1OCCO [bosentan]
sensitivity of PHH in 2Dsw compared with 3D spheroids ([1]; after 7 days (3 treatments)): higher
sensitivity of PHH in 2Dsw compared with 3D spheroids ([1]; at 14 days (6 treatments)): equal sensitivity

CCc1ccc(CCOc2ccc(CC3SC(=O)NC3=O)cc2)nc1 (stereo not shown) [pioglitazone]
toxicity (ATP viability) ([2]; 3D spheroid culture, up to 14 days): non-toxic
toxicity (ATP viability) ([1]; 2Dsw culture, up to 14 days): non-toxic

O=C(O)Cc1ccccc1Nc1c(Cl)cccc1Cl [diclofenac]
sensitivity of PHH in 2Dsw compared with 3D spheroids [1, 3]: substantially lower sensitivities

Cc1c(C)c2c(c(C)c1O)CCC(C)(COc1ccc(CC3SC(=O)NC3=O)cc1)O2 (stereo not shown) [troglitazone]
donors in which toxicity was identified at relevant concentrations ([2]; 3D spheroids, after 72 hours (single treatment), 3 donors tested): all 3 donors
donors in which toxicity was indicated ([1]; 2Dsw culture, 3 donors tested): 1 of the 3 donors
sensitivity of PHH in 2Dsw compared with 3D spheroids [1, 3]: substantially lower sensitivities
